Experimental findings from PubChem BioAssay (NCI) are described below.

Test systems include RPMI-8226 leukemia; K-562 leukemia; HCT-15 colon; NCI-H522 lung; NCI-H226 lung; SN12C renal; A549 NSCLC; MALME-3M melanoma; SK-MEL-2 melanoma; KM12 colon; SF-539 CNS; OVCAR-4 ovarian; SK-OV-3 ovarian; RXF 393 renal.
Common to all, as to assay: NCI anticancer screen, dose series, 48 h

Structures are written as SMILES.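 1) Cells in 96-well plates. 2) Compound, 48 h, 5 concentrations. 3) Linear interpolation between surrounding doses. 4) Unreached endpoint = highest concentration. Abbreviation: GI50, concentration required for 50% inhibition of growth. The concentration for full growth arrest is given as TGI.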

In the case of `CN(C)S(=O)(=O)c1cccc(-c2nc3sc4c(c3c(=O)[nH]2)CCCC4)c1`, the GI50 was above 100 µM in the assay with RPMI-8226 leukemia; above 100 µM in the assay with K-562 leukemia; above 100 µM in the assay on HCT-15 colon; above 100 µM with NCI-H522 lung; 2.38 µM with NCI-H226 lung. The TGI in the assay on RPMI-8226 leukemia, in the assay with K-562 leukemia, in the assay on HCT-15 colon, in the assay with NCI-H522 lung and in the assay on NCI-H226 lung was above 100 µM throughout.
For `O=C(/C=C/c1ccsc1)c1ccc(Cl)s1`, the TGI is 45.5 µM in the assay with RPMI-8226 leukemia; above 100 µM in the assay with HCT-15 colon; above 100 µM in the assay on SN12C renal; above 100 µM in the assay on A549 NSCLC; above 100 µM in the assay on MALME-3M melanoma; above 100 µM in the assay with SK-MEL-2 melanoma. Further, the TGI in the assay with KM12 colon is 35.9 µM; in the assay with NCI-H226 lung, above 100 µM; with SF-539 CNS, above 100 µM; in the assay on OVCAR-4 ovarian, above 100 µM; in the assay on SK-OV-3 ovarian it was above 100 µM.
As to `CC(=O)O[C@H]1CC[C@H]2[C@@H]3CC[C@H]4Nc5c(cnn5S(C)(=O)=O)C[C@]4(C)[C@H]3CC[C@]12C`, the TGI in the assay on RXF 393 renal, in the assay on RPMI-8226 leukemia, in the assay with K-562 leukemia, in the assay with HCT-15 colon, in the assay with NCI-H522 lung and in the assay with SN12C renal was above 100 µM in each case. Moreover, the TGI with MALME-3M melanoma, in the assay with SK-MEL-2 melanoma, in the assay with KM12 colon, in the assay with NCI-H226 lung, with OVCAR-4 ovarian and in the assay on SK-OV-3 ovarian was above 100 µM each time.
Consider `COc1cc(C2c3cc4c(cc3[C@@H](Nc3ccc(N5CCOCC5)cc3)C3COC(=O)[C@H]23)OCO4)cc(OC)c1O` (stereo not given in full), for which the TGI in the assay on RXF 393 renal came to 5.86 µM; in the assay on RPMI-8226 leukemia it was 12.6 µM; in the assay on K-562 leukemia it was 5.01 µM; in the assay with HCT-15 colon, 2.59 µM; in the assay with NCI-H522 lung, 3.4 µM; with SN12C renal, 2.12 µM. Moreover, the TGI with A549 NSCLC worked out at 1.62 µM; with MALME-3M melanoma, 15 µM; with SK-MEL-2 melanoma, 5.4 µM; in the assay with NCI-H226 lung, 2.9 µM; in the assay on SF-539 CNS, 2.32 µM; in the assay on OVCAR-4 ovarian, 25.9 µM. The compound also yielded a TGI in the assay on SK-OV-3 ovarian of 5.38 µM.
On to `CC1=NN(C(=O)c2ccccc2)C(=O)C1N=Nc1ccccc1C(=O)O` (stereo not given), for which the TGI was above 100 µM in the assay on RXF 393 renal; above 100 µM in the assay on RPMI-8226 leukemia; above 29.4 µM in the assay on K-562 leukemia; above 100 µM with HCT-15 colon; 38 µM in the assay with NCI-H522 lung; above 100 µM in the assay with SN12C renal. Moreover, the TGI in the assay on A549 NSCLC is above 100 µM; with MALME-3M melanoma, above 100 µM; in the assay on SK-MEL-2 melanoma, above 100 µM; in the assay with KM12 colon, above 100 µM; in the assay on NCI-H226 lung, above 73.7 µM; with SF-539 CNS, above 100 µM. In addition, the TGI with OVCAR-4 ovarian was above 55 µM; in the assay with SK-OV-3 ovarian, above 100 µM.
For `Cn1nc2ccc3nccc(NCCNCCCl)c3c2n1`, the TGI with RXF 393 renal, with RPMI-8226 leukemia, in the assay with K-562 leukemia, with HCT-15 colon, in the assay with NCI-H522 lung and in the assay with SN12C renal was above 100 µM throughout. The TGI in the assay with A549 NSCLC, in the assay on MALME-3M melanoma, in the assay on SK-MEL-2 melanoma, in the assay with KM12 colon, in the assay with NCI-H226 lung and in the assay with SF-539 CNS was above 100 µM each time. Also, the TGI in the assay with OVCAR-4 ovarian and in the assay on SK-OV-3 ovarian was above 100 µM in each case.
For the compound `CCOC(=O)CCc1c(C)c2c(O)cc(O)cc2oc1=O`, the TGI in the assay with RXF 393 renal, in the assay with RPMI-8226 leukemia, in the assay with K-562 leukemia, in the assay with HCT-15 colon, in the assay with NCI-H522 lung and in the assay on SN12C renal was above 100 µM in each case. Also, the TGI in the assay with A549 NSCLC, with MALME-3M melanoma, in the assay with SK-MEL-2 melanoma, with KM12 colon, with NCI-H226 lung and in the assay on SF-539 CNS was above 100 µM in each case. Also, the TGI in the assay with OVCAR-4 ovarian and with SK-OV-3 ovarian was above 100 µM each time.
`COC(=O)C[C@](O)(CCC(C)(C)O)C(=O)O[C@@H]1C(OC)=C[C@]23CCCN2CCc2cc4c(cc2[C@H]13)OCO4`: the TGI in the assay with RXF 393 renal was 0.518 µM; in the assay with RPMI-8226 leukemia, 0.701 µM; in the assay with K-562 leukemia, above 100 µM; in the assay with HCT-15 colon it was 2.07 µM; in the assay with NCI-H522 lung, 0.0597 µM; with SN12C renal it was 1.07 µM. For the same compound, the TGI with A549 NSCLC was found to be 0.45 µM; with MALME-3M melanoma, 0.109 µM; with SK-MEL-2 melanoma, 0.407 µM; in the assay on KM12 colon, 1.21 µM; in the assay on NCI-H226 lung it was 0.124 µM; in the assay on SF-539 CNS, 0.102 µM. Besides, the TGI was found to be 0.478 µM in the assay with OVCAR-4 ovarian and 0.915 µM with SK-OV-3 ovarian.
Consider `CCOC(=O)C1CCn2c(nc3c(=O)n(C)c(=O)n(C)c32)S1` (stereo not given), for which the TGI with RXF 393 renal, in the assay with RPMI-8226 leukemia, in the assay with K-562 leukemia, in the assay with HCT-15 colon, in the assay on NCI-H522 lung and in the assay on SN12C renal was above 100 µM throughout. In addition, the TGI in the assay with A549 NSCLC, with MALME-3M melanoma, in the assay on SK-MEL-2 melanoma, with NCI-H226 lung, with SF-539 CNS and with OVCAR-4 ovarian was above 100 µM each time. The compound further gave a TGI in the assay on SK-OV-3 ovarian above 100 µM.
